Measured values from patent US20230312556A1, “ARYLAMIDE COMPOUND, PHARMACEUTICAL COMPOSITION COMPRISING SAME, AND PREPARATION METHOD THEREFOR AND USE THEREOF” (SICHUAN KELUN-BIOTECH BIOPHARMACEUTICAL CO., LTD., priority 2020, published 2023).

These molecules were tested against mutant BRAF enzyme (BRAF-V600E) (Homo sapiens (Human), UniProt P15056, V600E) (assay: RAF inhibition assay (TB-PMAP2K1 kit), BRAF-V600E). Conditions: FLUORESCEIN-MAP2K1 substrate, 60 min reaction.
mutant BRAF enzyme (BRAF-V600E), sequence (P15056 whole entry V600E): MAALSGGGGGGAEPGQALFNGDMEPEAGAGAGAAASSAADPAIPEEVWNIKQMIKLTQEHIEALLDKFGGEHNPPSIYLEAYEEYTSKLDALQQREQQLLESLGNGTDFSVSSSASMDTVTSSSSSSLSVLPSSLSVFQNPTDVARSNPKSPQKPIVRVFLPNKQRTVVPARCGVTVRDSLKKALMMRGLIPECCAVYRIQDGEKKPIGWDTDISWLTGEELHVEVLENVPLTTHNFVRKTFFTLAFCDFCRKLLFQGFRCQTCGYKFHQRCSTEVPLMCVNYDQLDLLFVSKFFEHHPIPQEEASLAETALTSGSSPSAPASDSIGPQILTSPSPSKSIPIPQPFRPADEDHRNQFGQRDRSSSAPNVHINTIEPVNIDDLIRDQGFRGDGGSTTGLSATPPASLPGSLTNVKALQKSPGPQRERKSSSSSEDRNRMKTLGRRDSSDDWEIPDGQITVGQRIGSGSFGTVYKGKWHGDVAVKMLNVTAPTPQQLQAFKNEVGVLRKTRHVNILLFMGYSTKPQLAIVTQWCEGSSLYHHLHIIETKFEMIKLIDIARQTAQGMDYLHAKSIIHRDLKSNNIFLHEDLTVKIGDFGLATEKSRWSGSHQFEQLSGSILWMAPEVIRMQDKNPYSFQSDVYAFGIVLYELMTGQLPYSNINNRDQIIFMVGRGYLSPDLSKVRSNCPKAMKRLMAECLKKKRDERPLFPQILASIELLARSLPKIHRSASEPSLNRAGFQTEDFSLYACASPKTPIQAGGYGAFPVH
Type: biochemical
`Cc1ccc2c(Nc3cccc(Cl)c3F)nccc2c1NC(=O)c1cc(O)cc2c(N)ncnc12` [Compound 76, 4-amino-N-(1-((3-chloro-2-fluorophenyl)amino)-6-methylisoquinolin-5-yl)-6-hydroxyquinazoline-8-carboxamide] was tested, and the IC50 was 29.3 ± 3.32 nM. For `Cc1ccc2c(C(O)c3ccc(C(F)(F)F)cc3)nccc2c1NC(=O)c1csc2c(N)ncnc12` (centres unmarked) [Compound 33, 4-amino-N-(1-(hydroxy(4-(trifluoromethyl)phenyl)methyl)-6-methylisoquinolin-5-yl)thieno[3,2-d]pyrimidine-7-carboxamide], the IC50 was 33.5 ± 6.13 nM. In the case of `Cc1ccc2c(Nc3cccc(Cl)c3)nccc2c1NC(=O)c1cnc2c(N)ncnn12` [Compound 12, 4-amino-N-(1-((3-chlorophenyl)amino)-6-methylisoquinolin-5-yl)imidazo[2,1-f][1,2,4]triazine-7-carboxamide], the IC50 is reported as 1.5 ± 0.2 nM. For `Cc1ccc2c(Nc3cccc(Cl)c3F)nccc2c1NC(=O)c1cc(N2CCOCC2)cc2c(N)ncnc12` [Compound 53, 4-amino-N-(1-((3-chloro-2-fluorophenyl)amino)-6-methylisoquinolin-5-yl)-6-morpholinoquinazoline-8-carboxamide], the IC50 was 17.3 ± 3.43 nM. With `Cc1ccc2c(Nc3cccc(C(F)(F)F)c3)nccc2c1NC(=O)c1cccc2c(N)nccc12` [Comparative Example 2, 1-amino-N-(6-methyl-1-((3-(trifluoromethyl)phenyl)amino)isoquinolin-5-yl)isoquinoline-5-carboxamide, reference compound] the IC50 was > 1000 nM. With `Cc1ccc2c(Cc3ccc(F)cc3)nccc2c1NC(=O)c1csc2c(N)ncnc12` [Compound 13, 4-amino-N-(1-(4-fluorobenzyl)-6-methylisoquinolin-5-yl)thieno[3,2-d]pyrimidine-7-carboxamide] the IC50 was 32.8 ± 0.6 nM. Molecule `CCOc1ccc(Nc2nccc3c(NC(=O)c4cccc5c(N)ncnc45)c(C)ccc23)c(F)c1` [Compound 74, 4-amino-N-(1-((4-ethoxy-2-fluorophenyl)amino)-6-methylisoquinolin-5-yl)quinazoline-8-carboxamide] has an IC50 of 13.8 ± 0.9 nM. `Cc1ccc2c(C(O)c3ccc(Cl)cc3)nccc2c1NC(=O)c1csc2c(N)ncnc12` (centres unmarked) [Compound 20, 4-amino-N-(1-((4-chlorophenyl)(hydroxy)methyl)-6-methylisoquinolin-5-yl)thieno[3,2-d]pyrimidine-7-carboxamide] was tested, and the IC50 was 10.7 ± 1.93 nM. In the case of `Cc1ccc2c(Nc3ccc(Cl)c(CN(C)C)c3)nccc2c1NC(=O)c1cccc2c(N)ncnc12` [Compound 64, 4-amino-N-(1-((4-chloro-3-((dimethylamino)methyl)phenyl)amino)-6-methylisoquinolin-5-yl)quinazoline-8-carboxamide], the IC50 is reported as 13 ± 3.58 nM. Work on `Cc1ccc2c(Nc3cc(Cl)ccc3F)nccc2c1NC(=O)c1cc(F)cc2c(N)ncnc12` [Compound 84, 4-amino-N-(1-((5-chloro-2-fluorophenyl)amino)-6-methylisoquinolin-5-yl)-6-fluoroquinazoline-8-carboxamide] yielded an IC50 of 23.8 ± 4.41 nM. For `COc1ccc(F)c(Nc2nccc3c(NC(=O)c4cccc5c(N)ncnc45)c(C)ccc23)c1` [Compound 87, 4-amino-N-(1-((2-fluoro-5-methoxyphenyl)amino)-6-methylisoquinolin-5-yl)quinazoline-8-carboxamide], the IC50 was 4.64 ± 0.7 nM. Work on `Cc1ccc2c(Nc3cccc(C#N)c3F)nccc2c1NC(=O)c1cccc2c(N)ncnc12` [Compound 83, 4-amino-N-(1-((3-cyano-2-fluorophenyl)amino)-6-methylisoquinolin-5-yl)quinazoline-8-carboxamide] yielded an IC50 of 15.1 ± 1.62 nM. With `Cc1ccc2c(Nc3ccc(Cl)c(F)c3F)nccc2c1NC(=O)c1cnc2c(N)ncnn12` [Compound 70, 4-amino-N-(1-((4-chloro-2,3-difluorophenyl)amino)-6-methylisoquinolin-5-yl)imidazo[2,1-f][1,2,4]triazine-7-carboxamide] the IC50 was 10.5 ± 1.72 nM. With `Cc1ccc2c(Cc3ccc(N(C)C)nc3)nccc2c1NC(=O)c1csc2c(N)ncnc12` [Compound 36, 4-amino-N-(1-((6-(dimethylamino)pyridin-3-yl)methyl)-6-methylisoquinolin-5-yl)thieno[3,2-d]pyrimidine-7-carboxamide] the IC50 was 22.5 ± 4.41 nM. For `COc1ccc(Cc2nccc3c(NC(=O)c4csc5c(N)ncnc45)c(C)ccc23)cc1` [Compound 5, 4-amino-N-(1-(4-methoxybenzyl)-6-methylisoquinolin-5-yl)thieno[3,2-d]pyrimidine-7-carboxamide], the IC50 was 8.9 ± 1.03 nM. In the case of `Cc1ccc2c(Nc3cccc(Cl)c3F)nccc2c1NC(=O)c1cnc2c(N)ncnn12` [Compound 30, 4-amino-N-(1-((3-chloro-2-fluorophenyl)amino)-6-methylisoquinolin-5-yl)imidazo[2,1-f][1,2,4]triazine-7-carboxamide], the IC50 is reported as 4.1 ± 0.2 nM. Molecule `Cc1ccc2c(Nc3cccc(OCCN4CCOCC4)c3F)nccc2c1NC(=O)c1cccc2c(N)ncnc12` [Compound 98, 4-amino-N-(1-((2-fluoro-3-(2-morpholinoethoxy)phenyl)amino)-6-methylisoquinolin-5-yl)quinazoline-8-carboxamide] has an IC50 of 21.9 ± 6.38 nM. `Cc1ccc2c(Nc3ccc(N(C)C)nc3)nccc2c1NC(=O)c1cccc2c(N)ncnc12` [Compound 59, 4-amino-N-(1-((6-(dimethylamino)pyridin-3-yl)amino)-6-methylisoquinolin-5-yl)quinazoline-8-carboxamide] showed an IC50 of 13 ± 1.35 nM. `Cc1ccc2c(Nc3cccc(Cl)c3F)nccc2c1NC(=O)c1cc(OCCN2CCOCC2)cc2c(N)ncnc12` [Compound 79, 4-amino-N-(1-((3-chloro-2-fluorophenyl)amino)-6-methylisoquinolin-5-yl)-6-(2-morpholinoethoxy)quinazoline-8-carboxamide] gave an IC50 of 14.7 ± 1.66 nM. For `Cc1ccc2c(C(=O)c3ccccc3Cl)nccc2c1NC(=O)c1csc2c(N)ncnc12` [Compound 11, 4-amino-N-(1-(2-chlorobenzoyl)-6-methylisoquinolin-5-yl)thieno[3,2-d]pyrimidine-7-carboxamide], the IC50 was 33.1 ± 7.2 nM. In the case of `Cc1ccc2c(C(O)c3ccc(F)cc3)nccc2c1NC(=O)c1csc2c(N)ncnc12` (centres unmarked) [Compound 15, 4-amino-N-(1-((4-fluorophenyl)(hydroxy)methyl)-6-methylisoquinolin-5-yl)thieno[3,2-d]pyrimidine-7-carboxamide], the IC50 is reported as 11.1 ± 1.5 nM. `Cc1ccc2c(Nc3ccnc(C(F)(F)F)c3)nccc2c1NC(=O)c1cccc2c(N)ncnc12` [Compound 71, 4-amino-N-(6-methyl-1-((2-(trifluoromethyl)pyridin-4-yl)amino)isoquinolin-5-yl)quinazoline-8-carboxamide] gave an IC50 of 23 ± 1.76 nM. `Cc1ccc2c(Nc3ccc(Cl)cc3F)nccc2c1NC(=O)c1cnc2c(N)ncnn12` [Compound 55, 4-amino-N-(1-((4-chloro-2-fluorophenyl)amino)-6-methylisoquinolin-5-yl)imidazo[2,1-f][1,2,4]triazine-7-carboxamide] showed an IC50 of 2.86 ± 0.24 nM. Work on `Cc1ccc2c(Nc3cccc(Cl)c3F)nccc2c1NC(=O)c1ccnc2c(N)ncnc12` [Compound 81, 4-amino-N-(1-((3-chloro-2-fluorophenyl)amino)-6-methylisoquinolin-5-yl)pyrido[3,2-d]pyrimidine-8-carboxamide] yielded an IC50 of 22 ± 3.69 nM. Molecule `CC(=O)c1ccc(Nc2nccc3c(NC(=O)c4cccc5c(N)ncnc45)c(C)ccc23)cc1` [Compound 63, N-(1-((4-acetylphenyl)amino)-6-methylisoquinolin-5-yl)-4-aminoquinazoline-8-carboxamide] has an IC50 of 5.39 ± 0.8 nM. Molecule `Cc1ccc2c(Cc3ccc(Cl)c(CN(C)C)c3)nccc2c1NC(=O)c1csc2c(N)ncnc12` [Compound 42, 4-amino-N-(1-(4-chloro-3-((dimethylamino)methyl)benzyl)-6-methylisoquinolin-5-yl)thieno[3,2-d]pyrimidine-7-carboxamide] has an IC50 of 35.8 ± 9.02 nM. `Cc1ccc2c(Cc3ccc(Cl)cc3F)nccc2c1NC(=O)c1csc2c(N)ncnc12` [Compound 26, 4-amino-N-(1-(4-chloro-2-fluorobenzyl)-6-methylisoquinolin-5-yl)thieno[3,2-d]pyrimidine-7-carboxamide] was tested, and the IC50 was 9 ± 0.77 nM. `Cc1ccc2c(Cc3ccccc3Cl)nccc2c1NC(=O)c1cccc2c(N)ncnc12` [Compound 25, 4-amino-N-(1-(2-chlorobenzyl)-6-methylisoquinolin-5-yl)quinazoline-8-carboxamide] gave an IC50 of 6.31 ± 0.99 nM. Molecule `Cc1ccc2c(Nc3cc(C#N)ccc3F)nccc2c1NC(=O)c1cccc2c(N)ncnc12` [Compound 80, 4-amino-N-(1-((5-cyano-2-fluorophenyl)amino)-6-methylisoquinolin-5-yl)quinazoline-8-carboxamide] has an IC50 of 13.5 ± 12.1 nM. `Cc1ccc2c(C(=O)c3ccc(Cl)cc3F)nccc2c1NC(=O)c1csc2c(N)ncnc12` [Compound 27, 4-amino-N-(1-(4-chloro-2-fluorobenzoyl)-6-methylisoquinolin-5-yl)thieno[3,2-d]pyrimidine-7-carboxamide] was tested, and the IC50 was 6.48 ± 0.93 nM. With `Cc1ccc2c(Nc3ccc(C#N)cc3F)nccc2c1NC(=O)c1cccc2c(N)ncnc12` [Compound 78, 4-amino-N-(1-((4-cyano-2-fluorophenyl)amino)-6-methylisoquinolin-5-yl)quinazoline-8-carboxamide] the IC50 was 12.4 ± 0.94 nM. Molecule `Cc1ccc2c(Nc3cc(F)ccc3F)nccc2c1NC(=O)c1cccc2c(N)ncnc12` [Compound 72, 4-amino-N-(1-((2,5-difluorophenyl)amino)-6-methylisoquinolin-5-yl)quinazoline-8-carboxamide] has an IC50 of 6.9 ± 1.3 nM. `Cc1ccc2c(Cc3ccc(C(F)(F)F)cc3)nccc2c1NC(=O)c1csc2c(N)ncnc12` [Compound 34, 4-amino-N-(6-methyl-1-(4-(trifluoromethyl)benzyl)isoquinolin-5-yl)thieno[3,2-d]pyrimidine-7-carboxamide] showed an IC50 of 26.9 ± 2.58 nM. `Cc1ccc(Nc2nccc3c(NC(=O)c4cccc5c(N)ncnc45)c(C)ccc23)c(F)c1` [Compound 88, 4-amino-N-(1-((2-fluoro-4-methylphenyl)amino)-6-methylisoquinolin-5-yl)quinazoline-8-carboxamide] gave an IC50 of 11.7 ± 0.99 nM. `Cc1ccc2c(Nc3ccccc3F)nccc2c1NC(=O)c1cnc2c(N)ncnn12` [Compound 44, 4-amino-N-(1-((2-fluorophenyl)amino)-6-methylisoquinolin-5-yl)imidazo[2,1-f][1,2,4]triazine-7-carboxamide] was tested, and the IC50 was 0.88 ± 0.15 nM.
